Reference: patent publication US11046699B2, “Pyrazolo-pyrimidin-amino-cycloalkyl compounds and their therapeutic uses” (RAPT THERAPEUTICS, INC., priority 2018, dated 2021)

Target: GCN2 (Homo sapiens, UniProt Q9P2K8)
Experiment: GCN2 enzymatic endpoint assay: phosphorylation of GFP-eIF2α measured by TR-FRET (Lanthascreen)
Format: biochemical
Details: tested as described in Example 77; compound and/or hydrochloride, dihydrochloride or trifluoroacetic acid salt; read-out: IC 50 Activity
Procedure, shortened: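 2 μM ATP, 80 nM GFP-eIF2α, RT, 90 min; EDTA stop. Tb-anti-phospho antibody TR-FRET read, 520/495 nm ratio.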

Chain of GCN2 (Q9P2K8 whole entry): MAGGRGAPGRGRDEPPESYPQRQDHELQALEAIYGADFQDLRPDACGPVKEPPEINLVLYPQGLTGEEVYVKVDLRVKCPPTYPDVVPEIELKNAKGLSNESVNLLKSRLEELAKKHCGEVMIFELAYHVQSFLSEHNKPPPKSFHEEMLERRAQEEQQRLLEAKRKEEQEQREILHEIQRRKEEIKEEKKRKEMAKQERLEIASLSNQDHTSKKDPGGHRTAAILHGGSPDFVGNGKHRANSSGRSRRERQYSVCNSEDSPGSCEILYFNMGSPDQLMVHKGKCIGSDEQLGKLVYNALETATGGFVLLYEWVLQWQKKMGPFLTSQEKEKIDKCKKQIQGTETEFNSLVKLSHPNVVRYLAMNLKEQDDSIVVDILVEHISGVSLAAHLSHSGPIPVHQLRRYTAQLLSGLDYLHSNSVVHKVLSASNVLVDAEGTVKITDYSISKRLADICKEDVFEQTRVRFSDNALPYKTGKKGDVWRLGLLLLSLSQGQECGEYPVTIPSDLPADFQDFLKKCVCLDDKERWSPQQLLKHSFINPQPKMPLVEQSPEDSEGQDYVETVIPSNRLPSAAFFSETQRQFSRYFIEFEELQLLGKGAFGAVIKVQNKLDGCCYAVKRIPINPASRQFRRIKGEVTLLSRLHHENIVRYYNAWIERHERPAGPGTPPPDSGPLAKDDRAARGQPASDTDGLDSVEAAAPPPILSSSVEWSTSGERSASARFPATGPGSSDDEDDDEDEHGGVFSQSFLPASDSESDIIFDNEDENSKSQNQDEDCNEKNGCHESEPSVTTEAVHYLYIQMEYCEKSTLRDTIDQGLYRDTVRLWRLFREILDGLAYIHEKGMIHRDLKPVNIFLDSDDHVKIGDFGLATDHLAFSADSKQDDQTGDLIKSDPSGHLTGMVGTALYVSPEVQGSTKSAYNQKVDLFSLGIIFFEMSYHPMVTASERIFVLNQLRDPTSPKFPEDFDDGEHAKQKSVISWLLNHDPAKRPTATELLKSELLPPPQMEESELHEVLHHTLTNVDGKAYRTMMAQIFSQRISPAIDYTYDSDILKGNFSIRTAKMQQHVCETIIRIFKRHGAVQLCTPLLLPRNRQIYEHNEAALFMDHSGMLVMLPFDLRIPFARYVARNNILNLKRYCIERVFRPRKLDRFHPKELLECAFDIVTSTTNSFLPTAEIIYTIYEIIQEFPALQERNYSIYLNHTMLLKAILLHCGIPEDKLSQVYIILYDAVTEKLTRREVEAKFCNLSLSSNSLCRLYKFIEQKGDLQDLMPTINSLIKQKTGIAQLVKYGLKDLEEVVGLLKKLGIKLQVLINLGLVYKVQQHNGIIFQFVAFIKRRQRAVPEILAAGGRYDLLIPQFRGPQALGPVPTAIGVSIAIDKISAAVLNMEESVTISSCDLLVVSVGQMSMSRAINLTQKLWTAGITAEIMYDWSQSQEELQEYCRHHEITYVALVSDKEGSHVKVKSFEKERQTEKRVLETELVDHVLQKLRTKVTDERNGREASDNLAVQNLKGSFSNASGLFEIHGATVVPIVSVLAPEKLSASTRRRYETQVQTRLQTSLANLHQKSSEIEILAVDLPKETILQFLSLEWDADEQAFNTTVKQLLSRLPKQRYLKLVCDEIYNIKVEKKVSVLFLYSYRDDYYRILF

Row | Compound | IC50
1 | O=C(NCCc1cnc[nH]1)[C@@H]1CC[C@@H](Nc2ncc3c(Br)nn(-c4ccc5ncccc5c4)c3n2)C1 [(1R,3R)-N-(2-(1H-imidazol-5-yl)ethyl)-3-((3-bromo-1-(quinolin-6-yl)-1H-pyrazolo [3,4-d]pyrimidin-6-yl)amino)cyclopentane-1-carboxamide] | 200 to 500 nM
2 | CNC(=O)[C@@]1(C)CC[C@@H](Nc2ncc3c(Br)nn(-c4ccc5ncccc5c4)c3n2)C1 [(1S,3R)-3-((3-bromo-1-(quinolin-6-yl)-1H-pyrazolo[3,4-d]pyrimidin-6-yl)amino)-N,1-dimethylcyclopentane-1-carboxamide] | 200 to 500 nM
3 | COCCNC(=O)[C@@]1(C)CC[C@@H](Nc2ncc3c(Br)nn(-c4ccc5ncccc5c4)c3n2)C1 [(1S,3R)-3-((3-bromo-1-(quinolin-6-yl)-1H-pyrazolo[3,4-d]pyrimidin-6-yl)amino)-N-(2-methoxyethyl)-1-methylcyclopentane-1-carboxamide] | 500 to 1000 nM
4 | CNS(=O)(=O)[C@H]1CC[C@@H](Nc2ncc3c(Br)nn(-c4ccc5ncccc5c4)c3n2)C1 [(1S,3R)-3-((3-bromo-1-(quinolin-6-yl)-1H-pyrazolo[3,4-d]pyrimidin-6-yl)amino)-N-methylcyclopentane-1-sulfonamide] | 500 to 1000 nM
5 | CNC(=O)[C@@]1(C)CC[C@@H](Nc2ncc3c(Br)nn(-c4ccc5nccnc5c4)c3n2)C1 [(1S,3R)-3-((3-bromo-1-(quinoxalin-6-yl)-1H-pyrazolo[3,4-d]pyrimidin-6-yl)amino)-N,1-dimethylcyclopentane-1-carboxamide] | 500 to 1000 nM
6 | C[C@]1(C(=O)NCCO)CC[C@@H](Nc2ncc3c(Br)nn(-c4cc(F)c5ncccc5c4)c3n2)C1 [(1S,3R)-3-[[3-bromo-1-(8-fluoro-6-quinolyl)pyrazolo[3,4-d]pyrimidin-6-yl]amino]-N-(2-hydroxyethyl)-1-methyl-cyclopentane-carboxamide] | 25 to 200 nM
7 | CNC(=O)[C@]1(CCC(F)(F)F)CC[C@@H](Nc2ncc3c(Br)nn(-c4cc(F)c5ncccc5c4)c3n2)C1 [(1S,3R)-3-[[3-bromo-1-(8-fluoro-6-quinolyl)pyrazolo[3,4-d]pyrimidin-6-yl]amino]-N-methyl-1-(3,3,3-trifluoropropyl)cyclopentane-carboxamide] | 25 to 200 nM
8 | CNC(=O)[C@]1(C(F)(F)F)CC[C@@H](Nc2ncc3c(Br)nn(-c4cc(F)c5ncccc5c4)c3n2)C1 [(1S,3R)-3-[[3-bromo-1-(8-fluoro-6-quinolyl)pyrazolo[3,4-d]pyrimidin-6-yl]amino]-N-methyl-1-(trifluoromethyl)cyclopentane-carboxamide] | 25 to 200 nM
9 | CNC(=O)[C@@]1(C)CC[C@@H](Nc2ncc3c(Br)nn(-c4cc(N5CCNCC5)c5ncccc5c4)c3n2)C1 [(1S,3R)-3-[[3-bromo-1-(8-piperazin-1-yl-6-quinolyl)pyrazolo[3,4-d]pyrimidin-6-yl]amino]-N,1-dimethyl-cyclopentane-carboxamide] | 25 to 200 nM
10 | CNC(=O)[C@@]1(C)CC[C@@H](Nc2ncc3c(Br)nn(-c4ccc(OCCO)cc4)c3n2)C1 [(1S,3R)-3-[[3-bromo-1-[4-(2-hydroxy-ethoxy)phenyl]pyrazolo[3,4-d]pyrimidin-6-yl]amino]-N,1-dimethyl-cyclopentane-carboxamide] | 25 to 200 nM
11 | CNC(=O)[C@@]1(CC(F)F)CC[C@@H](Nc2ncc3c(Br)nn(-c4ccc(-c5nnc(C)o5)cc4)c3n2)C1 [(1S,3R)-3-[[3-bromo-1-[4-(5-methyl-1,3,4-oxadiazol-2-yl)phenyl]pyrazolo[3,4-d]pyrimidin-6-yl]amino]-1-(2,2-difluoroethyl)-N-methyl-cyclopentanecarboxamide] | 25 to 200 nM
12 | CNC(=O)[C@@]1(CO)CC[C@@H](Nc2ncc3c(Br)nn(-c4ccc(-c5nnc(C)s5)cc4)c3n2)C1 [(1S,3R)-3-[[3-bromo-1-[4-(5-methyl-1,3,4-thiadiazol-2-yl)phenyl]pyrazolo [3,4-d]pyrimidin-6-yl]amino]-1-(hydroxymethyl)-N-methyl-cyclo-pentanecarboxamide] | 25 to 200 nM
13 | CNC(=O)[C@@]1([C@H](C)C#N)CC[C@@H](Nc2ncc3c(Br)nn(-c4ccc(-c5nnc(C)s5)cc4)c3n2)C1 [(1S,3R)-3-[[3-bromo-1-[4-(5-methyl-1,3,4-thiadiazol-2-yl)phenyl]pyrazolo [3,4-d]pyrimidin-6-yl]amino]-1-[(1S)-1-cyanoethyl]-N-methyl-cyclopentane-carboxamide] | 25 to 200 nM

Now from value to molecule:

Row | IC50 | Compound
14 | 25 to 200 nM | CC(C)N(CC(N)=O)C(=O)[C@@H]1CC[C@@H](Nc2ncc3c(Br)nn(-c4cc(F)c5ncccc5c4)c3n2)C1 [(1R,3R)-N-(2-amino-2-oxoethyl)-3-((3-bromo-1-(8-fluoroquinolin-6-yl)-1H-pyrazolo[3,4-d]pyrimidin-6-yl)amino)-N-isopropylcyclopentane-1-carboxamide]
15 | 25 to 200 nM | CN(CC(N)=O)C(=O)[C@@H]1CC[C@@H](Nc2ncc3c(Br)nn(-c4cc(F)c5ncccc5c4)c3n2)C1 [(1R,3R)-N-(2-amino-2-oxoethyl)-3-((3-bromo-1-(8-fluoroquinolin-6-yl)-1H-pyrazolo[3,4-d]pyrimidin-6-yl)amino)-N-methylcyclopentane-1-carboxamide]
16 | 25 to 200 nM | O=C(NCc1nnn[nH]1)[C@@H]1CC[C@@H](Nc2ncc3c(Br)nn(-c4cc(F)c5ncccc5c4)c3n2)C1 [(1R,3R)-N-((1H-tetrazol-5-yl)methyl)-3-((3-bromo-1-(8-fluoroquinolin-6-yl)-1H-pyrazolo [3,4-d]pyrimidin-6-yl)amino)cyclopentane-1-carboxamide]
17 | 25 to 200 nM | O[C@H]1CCC[C@@H]1Nc1ncc2c(Br)nn(-c3cc(F)c4ncccc4c3)c2n1 [(1S,2S)-2-[[3-bromo-1-(8-fluoro-6-quinolyl)pyrazolo[3,4-d]pyrimidin-6-yl]amino] cyclopentanol]
18 | 25 to 200 nM | CNC(=O)[C@@]1(C)CC[C@@H](Nc2ncc3c(Br)nn(-c4cc(C#N)c5ncccc5c4)c3n2)C1 [(1S,3R)-3-((3-bromo-1-(8-cyanoquinolin-6-yl)-1H-pyrazolo[3,4-d]pyrimidin-6-yl)amino)-N,1-dimethylcyclopentane-1-carboxamide]
19 | 25 to 200 nM | N#Cc1cc(-n2nc(Br)c3cnc(N[C@@H]4CC[C@H](C(=O)NCC5(F)CNC5)C4)nc32)cc2cccnc12 [(1S,3R)-3-((3-bromo-1-(8-cyanoquinolin-6-yl)-1H-pyrazolo[3,4-d]pyrimidin-6-yl)amino)-N-((3-fluoroazetidin-3-yl)methyl)cyclo-pentane-1-carboxamide]
20 | 25 to 200 nM | CNC(=O)[C@@]1(COC)CC[C@@H](Nc2ncc3c(I)nn(-c4cc(F)c5ncccc5c4)c3n2)C1 [(1S,3R)-3-[[1-(8-fluoro-6-quinolyl)-3-iodo-pyrazolo[3,4-d]pyrimidin-6-yl]amino]-1-(methoxymethyl)-N-methyl-cyclopentane-carboxamide]
21 | 25 to 200 nM | C[C@]1(C(=O)O)CC[C@@H](Nc2ncc3c(Br)nn(-c4cc(CCN)c5ncccc5c4)c3n2)C1 [(1S,3R)-3-[[1-[8-(2-aminoethyl)-6-quinolyl]-3-bromo-pyrazolo[3,4-d]pyrimidin-6-yl]amino]-1-methyl-cyclopentanecarboxylic acid]
22 | < 25 nM | CNC(=O)[C@@]1(C)CC[C@@H](Nc2ncc3c(Br)nn(-c4ccc5nc(OC)ccc5c4)c3n2)C1 [(1S,3R)-3-[[3-bromo-1-(2-methoxy-6-quinolyl)pyrazolo[3,4-d]pyrimidin-6-yl]amino]-N,1-dimethyl-cyclopentane-carboxamide]
23 | 25 to 200 nM | CNC(=O)[C@H]1CC[C@@H](Nc2ncc3c(Br)nn(-c4ccc5nc(OC)ccc5c4)c3n2)C1 [(1S,3R)-3-[[3-bromo-1-(2-methoxy-6-quinolyl)pyrazolo[3,4-d]pyrimidin-6-yl]amino]-N-methyl-cyclopentanecarboxamide]
24 | 25 to 200 nM | CNC(=O)[C@H]1CC[C@@H](Nc2ncc3c(Br)nn(-c4cnc5c(C#N)cccc5c4)c3n2)C1 [(1S,3R)-3-[[3-bromo-1-(8-cyano-3-quinolyl)pyrazolo[3,4-d]pyrimidin-6-yl]amino]-N-methyl-cyclopentanecarboxamide]
25 | < 25 nM | CNC(=O)[C@]1(CCCOC)CC[C@@H](Nc2ncc3c(Br)nn(-c4cc(F)c5ncccc5c4)c3n2)C1 [(1S,3R)-3-[[3-bromo-1-(8-fluoro-6-quinolyl)pyrazolo[3,4-d]pyrimidin-6-yl]amino]-1-(3-methoxypropyl)-N-methyl-cyclopentane-carboxamide]
26 | 25 to 200 nM | CNC(=O)[C@]1(F)CC[C@@H](Nc2ncc3c(Br)nn(-c4cc(F)c5ncccc5c4)c3n2)C1 [(1S,3R)-3-[[3-bromo-1-(8-fluoro-6-quinolyl)pyrazolo[3,4-d]pyrimidin-6-yl]amino]-1-fluoro-N-methyl-cyclopentanecarboxamide]
27 | 25 to 200 nM | CNC(=O)[C@]1(O)CC[C@@H](Nc2ncc3c(Br)nn(-c4cc(F)c5ncccc5c4)c3n2)C1 [(1S,3R)-3-[[3-bromo-1-(8-fluoro-6-quinolyl)pyrazolo[3,4-d]pyrimidin-6-yl]amino]-1-hydroxy-N-methyl-cyclopentanecarboxamide]
28 | 25 to 200 nM | CNC(=O)[C@]1(OC)CC[C@@H](Nc2ncc3c(Br)nn(-c4cc(F)c5ncccc5c4)c3n2)C1 [(1S,3R)-3-[[3-bromo-1-(8-fluoro-6-quinolyl)pyrazolo[3,4-d]pyrimidin-6-yl]amino]-1-methoxy-N-methyl-cyclopentanecarboxamide]
29 | < 25 nM | CNC(=O)[C@H]1CC[C@@H](Nc2ncc3c(Br)nn(-c4cc(F)c5ncccc5c4)c3n2)C1 [(1S,3R)-3-[[3-bromo-1-(8-fluoro-6-quinolyl)pyrazolo[3,4-d]pyrimidin-6-yl]amino]-N-methyl-cyclopentanecarboxamide]
30 | < 25 nM | CNC(=O)[C@@]1(C)CC[C@@H](Nc2ncc3c(Br)nn(-c4ccc5ncc(CCO)cc5c4)c3n2)C1 [(1S,3R)-3-[[3-bromo-1-[3-(2-hydroxy-ethyl)-6-quinolyl]pyrazolo[3,4-d]pyrimidin-6-yl]amino]-N,1-dimethyl-cyclopentanecarboxamide]
